Series [1] in a line: Metabolic stability with human hepatic microsomes. It counts as in vitro ADME. Conditions: human hepatic microsomes 0.1 mg protein/mL, 0.1 μmol/L test compound, after 30 minutes, 37° C. As for the experimental part: The specific method is as follows.
• (1) Fifty microliter-portions were taken from 0.2 μmol/L test compound diluted with β-NADPH solution. • (2) Fifty microliters of 0.2 mg protein/mL human hepatic microsome solution was added to each (except for a sample with a reaction time of 0 minutes). • (3) Incubation was performed with shaking at 37° C. for 30 minutes (concentration in reaction sample: 0.1 μmol/L test compound, 0.1 mg protein/mL human hepatic microsome). • (4) After incubation, 400 μL of methanol was added to terminate the reaction. • (5) To the sample with a reaction time of 0 minutes, 50 μL of 0.2 mg protein/mL hepatic microsome solution was added. • (6) Each of the samples from (4) and (5) was left to stand at −20° C. for 30 minutes or longer, and then centrifuged at 4° C. and 3,000 rpm for approximately 10 minutes. • (7) The supernatant was subjected to measurement with LC/MS/MS, and, based on the peak area obtained for the unchanged form, the residual rate (%) of the unchanged form was calculated as that for the case with an incubation time of 0 minutes was assumed as 100%.

Series [2] addresses hERG (human Ether-a-go-go Related Gene) channel (Homo sapiens, UniProt Q12809). Kind of series: hERG channel inhibition effect (whole-cell patch clamp). It is filed as cell-based. The conditions noted are these: 22 to 25° C. As for the experimental part: The hERG (human Ether-a-go-go Related Gene) channel inhibition effect of each test compound was examined with the following patch clamp method.
Under a fixed potential, an hERG current that passed through the whole cell membrane was recorded with the whole-cell patch clamp method.
To confirm the hERG current, the holding potential was set to −80 mV, and depolarizing pulses at −50 mV for 110 msec and at 20 mV for 4 sec and a subsequent repolarizing pulse at −50 mV for 2 sec were provided at a frequency of once per 15 seconds. After the stabilization of the hERG tail current obtained was confirmed, an application was initiated. The pulses were continuously provided also during the application.
The sampling frequency was set to 5 kHz, and Lowpass Filter was applied at 2 kHz. […]
hERG currents were measured by using an amplifier for patch clamping (Axopatch 200B, Molecular Devices, LLC), and electric signals obtained were recorded in a computer via recording/analysis software for patch clamping (pCLAMP 10, Molecular Devices, LLC).
The maximum tail current value was determined on the basis of the current value with the depolarizing pulse at −50 mV for 110 msec, and the change rate (suppression rate) 5 minutes after the initiation of application to the maximum tail current value before application of the test compound was calculated.
(Block of hERG is tested as a sign of cardiac risk.)

Series [3] deals with T1, human recombinant ALDH2 enzyme (Homo sapiens, UniProt P05091).
T1 construct: purchased BioVision Inc
T1 sequence (P05091 18-517): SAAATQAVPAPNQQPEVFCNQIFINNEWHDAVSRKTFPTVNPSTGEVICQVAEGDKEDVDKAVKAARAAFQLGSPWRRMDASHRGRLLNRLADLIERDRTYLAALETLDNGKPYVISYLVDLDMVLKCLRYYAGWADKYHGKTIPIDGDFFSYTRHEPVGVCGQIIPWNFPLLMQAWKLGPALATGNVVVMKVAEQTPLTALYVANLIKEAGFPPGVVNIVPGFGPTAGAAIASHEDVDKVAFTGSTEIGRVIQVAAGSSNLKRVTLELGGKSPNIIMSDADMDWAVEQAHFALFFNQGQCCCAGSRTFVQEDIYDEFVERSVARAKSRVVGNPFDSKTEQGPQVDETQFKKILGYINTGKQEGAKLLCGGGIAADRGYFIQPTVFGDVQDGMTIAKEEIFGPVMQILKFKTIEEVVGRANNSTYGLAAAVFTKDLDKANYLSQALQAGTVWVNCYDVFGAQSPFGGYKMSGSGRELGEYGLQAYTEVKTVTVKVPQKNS
Kind of series: ALDH2 activation effect (acetaldehyde oxidation rate, PicoProbe Aldehyde dehydrogenase Activity Assay Kit). It is filed as biochemical. As for the experimental part: The activation effect of each test compound on the acetaldehyde oxidation rate of ALDH2 was measured with the following method. A test was conducted by using a commercially available PicoProbe™ Aldehyde dehydrogenase Activity Assay Kit (manufactured by BioVision Inc.) with reference to an instruction attached to the product under the following conditions. To each well of a 384-well plate, the following (1) to (3) were sequentially added with a pipette: • (1) 10 μL of solution obtained by dissolving and diluting a human recombinant ALDH2 enzyme (manufactured by BioVision Inc.) with ALDH assay Buffer to reach 3-μg/mL; • (2) 10 μL of 30 μM or 90 μM test compound solution (with 3% DMSO) prepared by using ALDH assay Buffer; and • (3) 10 μL of Reaction mix composed with ratio of 8.6 μL of ALDH assay Buffer, 0.6 μL of PicoProbe, 0.3 μL of Substrate Mix, and 1.5 μL of Acetaldehyde.
Before addition of (3), incubation was performed at room temperature for 5 minutes. After addition of (3), fluorescence intensity was measured at room temperature every 2.5 minutes over a period of 180 minutes by using an EnSight (manufactured by PerkinElmer Inc.). Wavelengths of 535 nm and 587 nm were used for fluorescence intensities of excitation and -emission, respectively.

Series [4] in a line: Metabolic stability with mouse hepatic microsomes. It is filed as in vitro ADME. Conditions: for Residual rate (%) of unchanged form: mouse hepatic microsomes, after 30 minutes, 37° C., NADPH. As for the experimental part: Metabolic stability in mouse hepatic microsomes was evaluated with the following method.
• (1) Mouse hepatic microsomes: 20 mg/mL • (2) Test compound: 1.1 mM DMSO solution • (3) Potassium phosphate buffer solution: 66.7 mM (pH 7.4) • (4) NADPH solution: 10 mM in potassium phosphate buffer solution • (5) Quenching solution: 0.5% formic acid-acetonitrile solution with warfarin as internal standard substance 2. Method
Into a propylene tube, 971.5 μL of the potassium phosphate buffer solution and 27.5 μL of the mouse hepatic microsomes were put and suspended. Thereto, 1 μL of a test compound was added, and 180 μL was taken from this mixture and transferred into another tube. The mixture was preincubated at 37° C. for 5 minutes, and 20 μL of the NADPH solution (for the case with an incubation time of 30 minutes) or 20 μL of the potassium phosphate buffer solution (for the case with an incubation time of 0 minutes) was then added thereto. After incubation, 200 μL of the quenching solution was added to terminate the reaction. Subsequently, centrifugation was performed at 3220×g for 20 minutes, and the concentration of the unchanged form of the test compound in 200 μL of the supernatant was measured with LC-MS/MS. On the basis of the peak area obtained for the unchanged form, the residual rate (%) of the unchanged form was calculated as that for the case with an incubation time of 0 minutes was assumed as 100%.

[5] abbreviates: concentration of test compound 10 μM.
Setting [6] is: concentration of test compound 30 μM.

Molecules are shown by their SMILES.

hERG (human Ether-a-go-go Related Gene) channel, sequence (Q12809 whole entry): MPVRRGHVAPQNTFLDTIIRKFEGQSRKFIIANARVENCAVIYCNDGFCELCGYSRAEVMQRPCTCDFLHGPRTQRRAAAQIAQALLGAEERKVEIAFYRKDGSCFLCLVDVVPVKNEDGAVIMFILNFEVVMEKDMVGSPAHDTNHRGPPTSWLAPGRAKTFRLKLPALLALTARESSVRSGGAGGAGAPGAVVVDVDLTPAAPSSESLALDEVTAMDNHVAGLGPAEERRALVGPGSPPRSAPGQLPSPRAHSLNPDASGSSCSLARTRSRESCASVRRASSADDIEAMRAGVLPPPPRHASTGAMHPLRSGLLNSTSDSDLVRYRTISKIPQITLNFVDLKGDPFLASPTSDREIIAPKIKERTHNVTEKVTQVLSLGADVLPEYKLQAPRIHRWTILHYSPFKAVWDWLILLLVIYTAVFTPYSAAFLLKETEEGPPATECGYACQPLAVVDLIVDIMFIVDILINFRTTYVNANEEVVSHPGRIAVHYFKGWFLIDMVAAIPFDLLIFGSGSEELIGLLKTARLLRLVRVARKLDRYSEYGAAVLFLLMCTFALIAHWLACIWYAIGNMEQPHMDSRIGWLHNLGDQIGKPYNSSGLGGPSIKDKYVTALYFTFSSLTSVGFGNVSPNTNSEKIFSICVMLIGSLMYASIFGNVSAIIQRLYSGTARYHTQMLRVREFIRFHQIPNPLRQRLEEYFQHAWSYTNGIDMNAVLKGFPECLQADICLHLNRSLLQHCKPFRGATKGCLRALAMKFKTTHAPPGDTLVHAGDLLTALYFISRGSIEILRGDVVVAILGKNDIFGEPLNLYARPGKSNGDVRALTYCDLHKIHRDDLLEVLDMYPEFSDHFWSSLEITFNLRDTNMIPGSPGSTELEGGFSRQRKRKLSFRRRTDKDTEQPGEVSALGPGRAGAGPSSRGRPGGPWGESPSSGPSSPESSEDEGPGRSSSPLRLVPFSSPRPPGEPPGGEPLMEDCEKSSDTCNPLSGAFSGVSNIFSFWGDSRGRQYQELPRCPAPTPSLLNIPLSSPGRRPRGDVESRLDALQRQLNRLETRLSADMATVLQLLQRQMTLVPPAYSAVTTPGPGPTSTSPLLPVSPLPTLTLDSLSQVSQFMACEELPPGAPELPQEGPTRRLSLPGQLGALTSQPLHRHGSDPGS

In general, IC50 refers to the concentration needed to halve the response being measured. Low values mean greater potency, high ones weaker potency. In the case of `COCc1ccc(CNC(=O)c2cc(-c3ncccc3C(C)O)ccc2F)cc1F` (racemic) [Example 2, Racemic 2-fluoro-N-(3-fluoro-4-(methoxymethyl)benzyl)-5-(3-(1-hydroxyethyl)pyridin-2-yl)benzamide], the “Residual rate (%) of unchanged form” value in series [1] is recorded as 87%; in series [4], 68%. In series [2], this compound had an IC50 above 30 µM. The “acetaldehyde oxidation rate (rate with no test compound assumed as 100%)” value in series [3] (setting [5]) turned out to be 127%; in series [3] (setting [6]), 166%. For the same compound, the “metabolic stability in mouse hepatic microsomes (in words)” value (“metabolic stability” for short) in series [4] is recorded as “confirmed to have stability”.
For the compound `COCc1ccc(CNC(=O)c2cc(-c3ncccc3C(C)O)ccc2F)cc1F` (single isomer, unassigned) [Example 3, Chiral 2-fluoro-N-(3-fluoro-4-(methoxymethyl)benzyl)-5-(3-(1-hydroxyethyl)pyridin-2-yl)benzamide], the “acetaldehyde oxidation rate (rate with no test compound assumed as 100%)” value in series [3] (setting [5]) is 137%; in series [3] (setting [6]), 176%. In series [4], the “Residual rate (%) of unchanged form” value stood at 64%.
Turning to `COCc1ccc(CNC(=O)c2cc(-c3ncccc3C(C)O)ccc2F)cc1F` (single isomer, unassigned) [Example 4, Chiral 2-fluoro-N-(3-fluoro-4-(methoxymethyl)benzyl)-5-(3-(1-hydroxyethyl)pyridin-2-yl)benzamide], the “acetaldehyde oxidation rate (rate with no test compound assumed as 100%)” value is given as 131% in series [3] (setting [5]) and 155% in series [3] (setting [6]). Further, the “Residual rate (%) of unchanged form” value in series [4] stood at 60%.
Taken in the same sequence, the figures for `O=C(NCc1ccc2c(c1)OCO2)c1c(Cl)cccc1Cl` [Comparative Example 1, reference compound] were 149%, 176% and below 1%.
As to `COc1ccc(CNC(=O)c2cc(-c3ncccc3CO)ccc2OCC2CC2)cc1F` [Comparative Example 2, reference compound], the “Residual rate (%) of unchanged form” value in series [4] worked out at 6%.
For the compound `COCc1ccc(CNC(=O)c2c(Cl)cccc2Cl)cc1F` [Comparative Example 3, reference compound], in series [4], the “Residual rate (%) of unchanged form” value is given as 1%.
With `COCc1ccc(CNC(=O)c2c(F)cccc2Br)cc1F` [Comparative Example 4, reference compound], in series [4], the “Residual rate (%) of unchanged form” value was below 1%.
Take `COCc1ccc(CNC(=O)c2c(F)cccc2Cl)cc1F` [Comparative Example 5, reference compound]: the “Residual rate (%) of unchanged form” value in series [4] is on record as below 1%.
On the same count and under the same terms, as for `COCc1ccc(CNC(=O)c2c(F)cccc2F)cc1F` [Comparative Example 6, reference compound], the figure is 1%.
Turning to `CC(O)c1cccnc1-c1ccc(F)c(C(=O)NCc2ccc(COC(F)F)c(F)c2)c1` (stereo not drawn) [Example 5, N-(4-((Difluoromethoxy)methyl)-3-fluorobenzyl)-2-fluoro-5-(3-(1-hydroxyethyl)pyridin-2-yl)benzamide], the “Residual rate (%) of unchanged form” value in series [1] turned out to be 72%; in series [4] it was 52%. The “acetaldehyde oxidation rate (rate with no test compound assumed as 100%)” value in series [3] (setting [5]) is 124%; in series [3] (setting [6]) it was 146%. In addition, in series [4], the “metabolic stability” value is on record as “confirmed to have stability”.
Regarding `COCc1ccc(CNC(=O)c2cc(-c3ncccc3COC)ccc2F)cc1F` [Example 6, 2-Fluoro-N-(3-fluoro-4-(methoxymethyl)benzyl)-5-(3-(methoxymethyl)pyridin-2-yl)benzamide], the entries for the “Residual rate (%) of unchanged form” value in series [1] and in series [4] were 75% and 24%, respectively. The “acetaldehyde oxidation rate (rate with no test compound assumed as 100%)” value is 139% in series [3] (setting [5]) and 161% in series [3] (setting [6]). Also, in series [4], the “metabolic stability” value is “confirmed to have stability”.
With `COCc1ccc(CNC(=O)c2cc(-c3n[nH]cc3CO)ccc2Cl)cc1F` [Example 7, 2-Chloro-N-(3-fluoro-4-(methoxymethyl)benzyl)-5-(4-(hydroxymethyl)-1H-pyrazol-3-yl)benzamide], the entries for the “acetaldehyde oxidation rate (rate with no test compound assumed as 100%)” value in series [3] (setting [5]) and in series [3] (setting [6]) were 157% and 170%, respectively. Moreover, in series [4], the “Residual rate (%) of unchanged form” value was 74%.
